Results published in article PMC12670405, “Second-Generation AURKA-Targeting PROTACs: Structural Optimization toward in Vivo Degradation in Neuroblastoma” (Journal of Medicinal Chemistry, 2025).

Assays:
Assay in all cases: KINOMEscan scanMAX
Format in all cases: binding
Conditions in all cases: read-out: Percent Control
LCK = molecular target: T1, LCK (Homo sapiens, UniProt P06239)
T1 construct: purchased Eurofins Discovery (DiscoverX KINOMEscan scanMAX)
Experimental: (§1) The kinome-wide binding assay was performed by Eurofins Discovery using the scanMAX screening platform. More information can be found on the Eurofins Discovery Web site.

TLK1 = molecular target: T2, TLK1 (Homo sapiens, UniProt Q9UKI8)
T2 construct: purchased Eurofins Discovery (DiscoverX KINOMEscan scanMAX)
Experimental: as §1

ROCK1 = molecular target: T3, ROCK1 (Homo sapiens, UniProt Q13464)
T3 construct: purchased Eurofins Discovery (DiscoverX KINOMEscan scanMAX)
Experimental: as §1

FLT3(R834Q) = molecular target: T4, FLT3(R834Q) (Homo sapiens, UniProt P36888, R834Q)
T4 construct: purchased Eurofins Discovery (DiscoverX KINOMEscan scanMAX)
Experimental: as §1

BLK = molecular target: T5, BLK (Homo sapiens, UniProt P51451)
T5 construct: purchased Eurofins Discovery (DiscoverX KINOMEscan scanMAX)
Experimental: as §1

MRCKA = molecular target: T6, MRCKA (Homo sapiens, UniProt Q5VT25)
T6 construct: purchased Eurofins Discovery (DiscoverX KINOMEscan scanMAX)
Experimental: as §1

PIK3CA(Q546K) = molecular target: T7, PIK3CA(Q546K) (Homo sapiens, UniProt P42336, Q546K)
T7 construct: purchased Eurofins Discovery (DiscoverX KINOMEscan scanMAX)
Experimental: as §1

IKK-beta = molecular target: T8, IKK-beta (Homo sapiens, UniProt O14920)
T8 construct: purchased Eurofins Discovery (DiscoverX KINOMEscan scanMAX)
Experimental: as §1

PIK3CA(E545K) = molecular target: T9, PIK3CA(E545K) (Homo sapiens, UniProt P42336, E545K)
T9 construct: purchased Eurofins Discovery (DiscoverX KINOMEscan scanMAX)
Experimental: as §1

ALK(C1156Y) = molecular target: T10, ALK(C1156Y) (Homo sapiens, UniProt Q9UM73, C1156Y)
T10 construct: purchased Eurofins Discovery (DiscoverX KINOMEscan scanMAX)
Experimental: as §1

PRP4 = molecular target: T11, PRP4 (Homo sapiens, UniProt Q13523)
T11 construct: purchased Eurofins Discovery (DiscoverX KINOMEscan scanMAX)
Experimental: as §1

TTK = molecular target: T12, TTK (Homo sapiens, UniProt P33981)
T12 construct: purchased Eurofins Discovery (DiscoverX KINOMEscan scanMAX)
Experimental: as §1

PIK3CA = molecular target: T13, PIK3CA (Homo sapiens, UniProt P42336)
T13 construct: purchased Eurofins Discovery (DiscoverX KINOMEscan scanMAX)
Experimental: as §1

PIK3CA(C420R) = molecular target: T14, PIK3CA(C420R) (Homo sapiens, UniProt P42336, C420R)
T14 construct: purchased Eurofins Discovery (DiscoverX KINOMEscan scanMAX)
Experimental: as §1

SRPK3 = molecular target: T15, SRPK3 (Homo sapiens, UniProt Q9UPE1)
T15 construct: purchased Eurofins Discovery (DiscoverX KINOMEscan scanMAX)
Experimental: as §1

CDC2L2 = molecular target: T16, CDC2L2 (Homo sapiens, UniProt Q9UQ88)
T16 construct: purchased Eurofins Discovery (DiscoverX KINOMEscan scanMAX)
Experimental: as §1

DYRK1A = molecular target: T17, DYRK1A (Homo sapiens, UniProt Q13627)
T17 construct: purchased Eurofins Discovery (DiscoverX KINOMEscan scanMAX)
Experimental: as §1

ALK = molecular target: T18, ALK (Homo sapiens, UniProt Q9UM73)
T18 construct: purchased Eurofins Discovery (DiscoverX KINOMEscan scanMAX)
Experimental: as §1

BRAF = molecular target: T19, BRAF (Homo sapiens, UniProt P15056)
T19 construct: purchased Eurofins Discovery (DiscoverX KINOMEscan scanMAX)
Experimental: as §1

[1] = molecular target: T20, ABL1(F317L)-nonphosphorylated (Homo sapiens, UniProt P00519, F317L)
T20 construct: purchased Eurofins Discovery (DiscoverX KINOMEscan scanMAX)
Experimental: as §1

EIF2AK1 = molecular target: T21, EIF2AK1 (Homo sapiens, UniProt Q9BQI3)
T21 construct: purchased Eurofins Discovery (DiscoverX KINOMEscan scanMAX)
Experimental: as §1

BTK = molecular target: T22, BTK (Homo sapiens, UniProt Q06187)
T22 construct: purchased Eurofins Discovery (DiscoverX KINOMEscan scanMAX)
Experimental: as §1

MERTK = molecular target: T23, MERTK (Homo sapiens, UniProt Q12866)
T23 construct: purchased Eurofins Discovery (DiscoverX KINOMEscan scanMAX)
Experimental: as §1

ERK8 = molecular target: T24, ERK8 (Homo sapiens, UniProt Q8TD08)
T24 construct: purchased Eurofins Discovery (DiscoverX KINOMEscan scanMAX)
Experimental: as §1

MARK4 = molecular target: T25, MARK4 (Homo sapiens, UniProt Q96L34)
T25 construct: purchased Eurofins Discovery (DiscoverX KINOMEscan scanMAX)
Experimental: as §1

LIMK1 = molecular target: T26, LIMK1 (Homo sapiens, UniProt P53667)
T26 construct: purchased Eurofins Discovery (DiscoverX KINOMEscan scanMAX)
Experimental: as §1

SGK = molecular target: T27, SGK (Homo sapiens, UniProt O00141)
T27 construct: purchased Eurofins Discovery (DiscoverX KINOMEscan scanMAX)
Experimental: as §1

MEK5 = molecular target: T28, MEK5 (Homo sapiens, UniProt Q13163)
T28 construct: purchased Eurofins Discovery (DiscoverX KINOMEscan scanMAX)
Experimental: as §1

BIKE = molecular target: T29, BIKE (Homo sapiens, UniProt Q9NSY1)
T29 construct: purchased Eurofins Discovery (DiscoverX KINOMEscan scanMAX)
Experimental: as §1

SBK1 = molecular target: T30, SBK1 (Homo sapiens, UniProt Q52WX2)
T30 construct: purchased Eurofins Discovery (DiscoverX KINOMEscan scanMAX)
Experimental: as §1

ERK2 = molecular target: T31, ERK2 (Homo sapiens, UniProt P28482)
T31 construct: purchased Eurofins Discovery (DiscoverX KINOMEscan scanMAX)
Experimental: as §1

CSNK1G3 = molecular target: T32, CSNK1G3 (Homo sapiens, UniProt Q9Y6M4)
T32 construct: purchased Eurofins Discovery (DiscoverX KINOMEscan scanMAX)
Experimental: as §1

KIT(V559D) = molecular target: T33, KIT(V559D) (Homo sapiens, UniProt P10721, V559D)
T33 construct: purchased Eurofins Discovery (DiscoverX KINOMEscan scanMAX)
Experimental: as §1

CHEK2 = molecular target: T34, CHEK2 (Homo sapiens, UniProt O96017)
T34 construct: purchased Eurofins Discovery (DiscoverX KINOMEscan scanMAX)
Experimental: as §1

T13 sequence (P42336 whole entry): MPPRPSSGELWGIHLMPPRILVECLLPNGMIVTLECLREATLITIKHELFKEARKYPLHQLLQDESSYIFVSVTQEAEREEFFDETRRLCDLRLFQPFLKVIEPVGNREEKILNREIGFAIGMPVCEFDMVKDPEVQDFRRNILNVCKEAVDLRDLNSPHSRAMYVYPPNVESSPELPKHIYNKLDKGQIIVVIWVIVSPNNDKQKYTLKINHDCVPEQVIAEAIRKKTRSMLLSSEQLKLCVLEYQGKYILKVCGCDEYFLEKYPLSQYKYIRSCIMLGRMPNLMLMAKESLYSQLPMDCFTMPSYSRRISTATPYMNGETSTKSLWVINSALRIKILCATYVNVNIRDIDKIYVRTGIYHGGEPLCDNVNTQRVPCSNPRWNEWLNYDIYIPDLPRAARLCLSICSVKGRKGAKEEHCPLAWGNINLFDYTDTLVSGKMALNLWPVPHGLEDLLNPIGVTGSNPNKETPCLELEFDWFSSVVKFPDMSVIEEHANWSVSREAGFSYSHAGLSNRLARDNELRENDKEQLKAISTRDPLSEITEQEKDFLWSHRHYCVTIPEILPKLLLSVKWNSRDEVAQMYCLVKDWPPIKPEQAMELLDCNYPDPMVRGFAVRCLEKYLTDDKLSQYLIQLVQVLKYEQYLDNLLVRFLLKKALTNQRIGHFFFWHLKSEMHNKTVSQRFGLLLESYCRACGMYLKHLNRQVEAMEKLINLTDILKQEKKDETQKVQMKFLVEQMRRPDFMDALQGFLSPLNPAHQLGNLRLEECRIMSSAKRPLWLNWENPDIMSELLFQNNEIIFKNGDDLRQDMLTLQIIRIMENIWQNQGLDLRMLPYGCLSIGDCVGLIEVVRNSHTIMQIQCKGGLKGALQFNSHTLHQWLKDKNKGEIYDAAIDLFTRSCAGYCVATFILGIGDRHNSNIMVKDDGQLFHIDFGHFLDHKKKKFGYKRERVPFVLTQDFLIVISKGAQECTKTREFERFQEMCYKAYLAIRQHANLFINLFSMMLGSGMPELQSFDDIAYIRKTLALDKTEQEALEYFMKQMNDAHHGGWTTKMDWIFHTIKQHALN
T1 sequence (P06239 whole entry): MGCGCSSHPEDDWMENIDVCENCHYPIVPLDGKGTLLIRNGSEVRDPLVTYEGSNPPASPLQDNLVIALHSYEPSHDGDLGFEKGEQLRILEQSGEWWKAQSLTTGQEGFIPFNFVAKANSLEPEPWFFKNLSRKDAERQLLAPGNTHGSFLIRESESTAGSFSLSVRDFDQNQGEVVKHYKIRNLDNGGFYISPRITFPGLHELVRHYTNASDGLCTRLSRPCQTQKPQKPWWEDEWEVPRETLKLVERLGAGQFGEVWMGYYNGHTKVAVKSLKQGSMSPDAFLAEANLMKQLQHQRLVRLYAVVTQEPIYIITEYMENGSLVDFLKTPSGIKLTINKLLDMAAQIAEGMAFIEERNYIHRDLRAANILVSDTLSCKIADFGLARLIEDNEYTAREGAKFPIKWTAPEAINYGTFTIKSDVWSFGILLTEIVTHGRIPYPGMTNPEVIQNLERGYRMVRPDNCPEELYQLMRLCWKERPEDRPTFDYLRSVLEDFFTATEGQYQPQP
T9 sequence (P42336 whole entry E545K): as the sequence (P42336 whole entry) above, with E545K counted along it
T14 sequence (P42336 whole entry C420R): as the sequence (P42336 whole entry) above, with C420R counted along it
T11 sequence (Q13523 whole entry): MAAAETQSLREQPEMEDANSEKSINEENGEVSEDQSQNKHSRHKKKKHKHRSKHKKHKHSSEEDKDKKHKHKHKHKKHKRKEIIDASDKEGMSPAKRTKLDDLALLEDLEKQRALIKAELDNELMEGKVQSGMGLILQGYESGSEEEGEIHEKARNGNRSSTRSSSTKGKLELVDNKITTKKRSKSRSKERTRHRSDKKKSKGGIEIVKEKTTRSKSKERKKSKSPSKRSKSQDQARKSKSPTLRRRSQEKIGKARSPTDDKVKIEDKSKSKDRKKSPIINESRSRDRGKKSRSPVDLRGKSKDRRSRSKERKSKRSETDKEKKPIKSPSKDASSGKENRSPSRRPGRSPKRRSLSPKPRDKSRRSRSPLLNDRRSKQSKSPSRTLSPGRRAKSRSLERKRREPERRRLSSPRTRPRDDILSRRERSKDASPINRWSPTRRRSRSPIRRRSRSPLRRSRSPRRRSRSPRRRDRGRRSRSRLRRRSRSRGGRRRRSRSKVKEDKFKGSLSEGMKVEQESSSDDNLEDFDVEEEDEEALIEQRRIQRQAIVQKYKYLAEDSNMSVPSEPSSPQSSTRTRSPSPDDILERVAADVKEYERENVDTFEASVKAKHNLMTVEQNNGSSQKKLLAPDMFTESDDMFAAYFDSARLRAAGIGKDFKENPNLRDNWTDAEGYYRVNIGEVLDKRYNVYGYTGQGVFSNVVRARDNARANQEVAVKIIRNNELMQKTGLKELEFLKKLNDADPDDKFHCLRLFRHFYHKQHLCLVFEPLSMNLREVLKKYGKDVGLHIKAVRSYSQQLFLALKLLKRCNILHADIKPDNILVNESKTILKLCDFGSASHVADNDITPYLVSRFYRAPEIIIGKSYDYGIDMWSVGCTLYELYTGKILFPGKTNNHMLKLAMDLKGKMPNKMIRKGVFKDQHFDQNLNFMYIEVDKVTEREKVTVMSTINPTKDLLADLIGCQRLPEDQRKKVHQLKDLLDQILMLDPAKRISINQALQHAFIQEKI
T27 sequence (O00141 whole entry): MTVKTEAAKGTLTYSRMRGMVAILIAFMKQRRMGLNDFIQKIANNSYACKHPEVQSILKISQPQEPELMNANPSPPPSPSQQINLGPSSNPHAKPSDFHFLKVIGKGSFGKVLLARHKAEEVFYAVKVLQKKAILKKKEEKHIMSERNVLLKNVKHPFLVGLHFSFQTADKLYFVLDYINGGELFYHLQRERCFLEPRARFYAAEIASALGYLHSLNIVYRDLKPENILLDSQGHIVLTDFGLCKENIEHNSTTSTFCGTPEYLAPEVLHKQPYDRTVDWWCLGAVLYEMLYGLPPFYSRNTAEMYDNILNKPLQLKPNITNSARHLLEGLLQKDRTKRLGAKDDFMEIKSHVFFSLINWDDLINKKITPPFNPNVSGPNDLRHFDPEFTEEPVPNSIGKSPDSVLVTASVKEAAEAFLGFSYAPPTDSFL
T18 sequence (Q9UM73 19-1620): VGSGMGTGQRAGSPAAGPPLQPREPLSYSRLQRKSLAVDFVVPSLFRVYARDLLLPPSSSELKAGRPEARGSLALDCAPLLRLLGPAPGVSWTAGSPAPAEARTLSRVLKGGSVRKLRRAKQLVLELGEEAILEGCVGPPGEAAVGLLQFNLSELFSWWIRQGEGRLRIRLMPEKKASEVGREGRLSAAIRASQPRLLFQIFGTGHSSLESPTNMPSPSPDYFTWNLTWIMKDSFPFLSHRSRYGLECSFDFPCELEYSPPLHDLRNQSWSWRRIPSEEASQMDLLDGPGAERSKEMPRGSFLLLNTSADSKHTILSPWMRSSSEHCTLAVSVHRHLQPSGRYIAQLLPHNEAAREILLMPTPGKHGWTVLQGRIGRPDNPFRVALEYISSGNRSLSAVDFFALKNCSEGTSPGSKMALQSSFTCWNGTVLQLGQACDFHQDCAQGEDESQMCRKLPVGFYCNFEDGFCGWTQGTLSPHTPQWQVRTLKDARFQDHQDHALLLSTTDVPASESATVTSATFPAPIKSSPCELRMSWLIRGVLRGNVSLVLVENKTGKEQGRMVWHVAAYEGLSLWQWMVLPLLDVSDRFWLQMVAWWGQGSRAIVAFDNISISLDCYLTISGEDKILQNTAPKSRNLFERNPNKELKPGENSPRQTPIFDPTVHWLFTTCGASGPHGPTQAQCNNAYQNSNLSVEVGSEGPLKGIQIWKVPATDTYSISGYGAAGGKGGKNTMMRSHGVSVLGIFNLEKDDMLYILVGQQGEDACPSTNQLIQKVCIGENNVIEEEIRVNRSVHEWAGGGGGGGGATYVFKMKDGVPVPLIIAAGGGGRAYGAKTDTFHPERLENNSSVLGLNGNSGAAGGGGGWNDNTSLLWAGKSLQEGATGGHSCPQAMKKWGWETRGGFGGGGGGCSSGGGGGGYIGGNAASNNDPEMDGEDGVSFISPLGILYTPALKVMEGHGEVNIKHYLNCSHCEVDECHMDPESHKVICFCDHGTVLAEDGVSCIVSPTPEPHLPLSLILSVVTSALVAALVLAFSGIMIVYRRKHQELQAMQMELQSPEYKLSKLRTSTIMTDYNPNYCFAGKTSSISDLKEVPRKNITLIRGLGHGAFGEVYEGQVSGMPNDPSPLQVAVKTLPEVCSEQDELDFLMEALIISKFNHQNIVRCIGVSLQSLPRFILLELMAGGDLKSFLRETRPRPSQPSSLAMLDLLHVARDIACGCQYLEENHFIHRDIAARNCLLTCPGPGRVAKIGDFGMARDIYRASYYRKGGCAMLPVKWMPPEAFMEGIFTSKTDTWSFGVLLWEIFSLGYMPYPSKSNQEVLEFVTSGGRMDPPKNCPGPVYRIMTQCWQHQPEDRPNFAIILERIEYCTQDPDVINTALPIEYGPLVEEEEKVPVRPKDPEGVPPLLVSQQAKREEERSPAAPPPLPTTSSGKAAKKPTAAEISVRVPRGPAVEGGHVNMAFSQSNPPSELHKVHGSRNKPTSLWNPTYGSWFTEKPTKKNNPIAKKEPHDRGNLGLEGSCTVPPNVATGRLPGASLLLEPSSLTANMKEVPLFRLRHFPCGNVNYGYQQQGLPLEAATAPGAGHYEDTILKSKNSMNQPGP
T7 sequence (P42336 whole entry Q546K): as the sequence (P42336 whole entry) above, with Q546K counted along it
T10 sequence (Q9UM73 19-1620 C1156Y): as the sequence (Q9UM73 19-1620) above, with C1138Y counted along it

Cc1cc(Nc2ccc(F)c(CC3(C(=O)N4CCC(F)(CN5CCN(c6ccc(N7CCC(=O)NC7=O)cn6)CC5)CC4)CCN(Cc4cccc(Cl)c4F)CC3)n2)n[nH]1 [SK5527]
remaining binding at 0.1 µM (LCK; 100 nM): 82%
remaining binding at 1 µM (LCK; 1000 nM): 84%
remaining binding at 0.1 µM (TLK1; 100 nM): 88%
remaining binding at 1 µM (TLK1; 1000 nM): 74%
remaining binding at 0.1 µM (ROCK1; 100 nM): 96%
remaining binding at 1 µM (ROCK1; 1000 nM): 81%
remaining binding at 0.1 µM (FLT3(R834Q); 100 nM): 86%
remaining binding at 1 µM (FLT3(R834Q); 1000 nM): 75%
remaining binding at 0.1 µM (BLK; 100 nM): 97%
remaining binding at 1 µM (BLK; 1000 nM): 45%
remaining binding at 0.1 µM (MRCKA; 100 nM): 100%
remaining binding at 1 µM (MRCKA; 1000 nM): 93%
remaining binding at 0.1 µM (PIK3CA(Q546K); 100 nM): 81%
remaining binding at 1 µM (PIK3CA(Q546K); 1000 nM): 78%
remaining binding at 0.1 µM (IKK-beta; 100 nM): 100%
remaining binding at 1 µM (IKK-beta; 1000 nM): 73%
remaining binding at 0.1 µM (PIK3CA(E545K); 100 nM): 93%
remaining binding at 1 µM (PIK3CA(E545K); 1000 nM): 71%
remaining binding at 0.1 µM (ALK(C1156Y); 100 nM): 87%
remaining binding at 1 µM (ALK(C1156Y); 1000 nM): 100%
remaining binding at 0.1 µM (PRP4; 100 nM): 100%
remaining binding at 1 µM (PRP4; 1000 nM): 74%
remaining binding at 0.1 µM (TTK; 100 nM): 100%
remaining binding at 1 µM (TTK; 1000 nM): 100%
remaining binding at 0.1 µM (PIK3CA; 100 nM): 94%
remaining binding at 1 µM (PIK3CA; 1000 nM): 90%
remaining binding at 0.1 µM (PIK3CA(C420R); 100 nM): 63%
remaining binding at 1 µM (PIK3CA(C420R); 1000 nM): 100%
remaining binding at 0.1 µM (SRPK3; 100 nM): 100%
remaining binding at 1 µM (SRPK3; 1000 nM): 97%
remaining binding at 0.1 µM (CDC2L2; 100 nM): 99%
remaining binding at 1 µM (CDC2L2; 1000 nM): 98%
remaining binding at 0.1 µM (DYRK1A; 100 nM): 79%
remaining binding at 1 µM (DYRK1A; 1000 nM): 80%
remaining binding at 0.1 µM (ALK; 100 nM): 73%
remaining binding at 1 µM (ALK; 1000 nM): 62%
remaining binding at 0.1 µM (BRAF; 100 nM): 100%
remaining binding at 1 µM (BRAF; 1000 nM): 100%
remaining binding at 0.1 µM ([1]; 100 nM): 97%
remaining binding at 1 µM ([1]; 1000 nM): 49%
remaining binding at 0.1 µM (EIF2AK1; 100 nM): 81%
remaining binding at 1 µM (EIF2AK1; 1000 nM): 70%
remaining binding at 0.1 µM (BTK; 100 nM): 88%
remaining binding at 1 µM (BTK; 1000 nM): 80%
remaining binding at 0.1 µM (MERTK; 100 nM): 90%
remaining binding at 1 µM (MERTK; 1000 nM): 54%
remaining binding at 0.1 µM (ERK8; 100 nM): 89%
remaining binding at 1 µM (ERK8; 1000 nM): 92%
remaining binding at 0.1 µM (MARK4; 100 nM): 100%
remaining binding at 1 µM (MARK4; 1000 nM): 100%
remaining binding at 0.1 µM (LIMK1; 100 nM): 88%
remaining binding at 1 µM (LIMK1; 1000 nM): 96%
remaining binding at 0.1 µM (SGK; 100 nM): 93%
remaining binding at 1 µM (SGK; 1000 nM): 68%
remaining binding at 0.1 µM (MEK5; 100 nM): 83%
remaining binding at 1 µM (MEK5; 1000 nM): 61%
remaining binding at 0.1 µM (BIKE; 100 nM): 80%
remaining binding at 1 µM (BIKE; 1000 nM): 73%
remaining binding at 0.1 µM (SBK1; 100 nM): 86%
remaining binding at 1 µM (SBK1; 1000 nM): 64%
remaining binding at 0.1 µM (ERK2; 100 nM): 100%
remaining binding at 1 µM (ERK2; 1000 nM): 97%
remaining binding at 0.1 µM (CSNK1G3; 100 nM): 100%
remaining binding at 1 µM (CSNK1G3; 1000 nM): 92%
remaining binding at 0.1 µM (KIT(V559D); 100 nM): 100%
remaining binding at 1 µM (KIT(V559D); 1000 nM): 100%
remaining binding at 0.1 µM (CHEK2; 100 nM): 97%
remaining binding at 1 µM (CHEK2; 1000 nM): 89%
